Assay results: the NIST ThermoML archive (doi:10.1016/j.jct.2014.02.019)

Experiments:
[1] = 101 kPa, Liquid; for viscosity: Capillary tube (Ostwald / Ubbelohde) method; for mass density: Vibrating tube method
[2] = wn = mass fraction of the nth substance listed; conditions: 101 kPa, Liquid; for viscosity: Capillary tube (Ostwald / Ubbelohde) method; for mass density: Vibrating tube method

CC#N [acetonitrile]
[1]
Conditions | mass density [kg/m3] | viscosity [mPa·s]
298.15 K | 776.47 | 0.342
303.15 K | 771.56 | 0.3269
308.15 K | 765.26 | 0.3092
313.15 K | 759.55 | 0.2929

CC#N [acetonitrile] + CN(C)C=O
[2]
Conditions | mass density, 298.15 K [kg/m3] | mass density, 303.15 K [kg/m3] | mass density, 308.15 K [kg/m3] | mass density, 313.15 K [kg/m3] | viscosity, 298.15 K [mPa·s] | viscosity, 303.15 K [mPa·s] | viscosity, 308.15 K [mPa·s] | viscosity, 313.15 K [mPa·s]
w2 = 0 | 776.47 | 771.56 | 765.26 | 759.55 | 0.342 | 0.3269 | 0.3092 | 0.2929
w2 = 0.25 | 816.75 | 811.82 | 806.58 | 801.83 | 0.3959 | 0.3598 | 0.3417 | 0.3262
w2 = 0.5 | 856.92 | 852.67 | 847.38 | 842.57 | 0.5214 | 0.46 | 0.434 | 0.4038
w2 = 0.75 | 900.14 | 895.46 | 890.88 | 886.23 | 0.6465 | 0.6145 | 0.5816 | 0.5524

CN(C)C=O [dimethylformamide]
[1]
Conditions | mass density [kg/m3] | viscosity [mPa·s]
298.15 K | 944.65 | 0.7986
303.15 K | 940.05 | 0.755
308.15 K | 935.71 | 0.7069
313.15 K | 929.91 | 0.6716

CN(C)C=O [dimethylformamide] + CC#N
[2], w1 = 1
Conditions | mass density [kg/m3] | viscosity [mPa·s]
298.15 K | 944.65 | 0.7986
303.15 K | 940.05 | 0.755
308.15 K | 935.71 | 0.7069
313.15 K | 929.91 | 0.6716
